From PubChem BioAssay (NCI)
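Cells were grown in 96-well plates and exposed to each compound for 48 hours at five concentrations; endpoints were interpolated linearly between bracketing concentrations, or set to the highest concentration if not reached. TGI: concentration producing complete growth inhibition.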

How the values were obtained:
Assay in all cases: DTP human tumour cell line panel, 48 h
DMS 114 small cell lung = system: DMS 114 small cell lung
SF-295 CNS = system: SF-295 CNS
HL-60(TB) leukemia = system: HL-60(TB) leukemia
DLD-1 colon = system: DLD-1 colon
M14 melanoma = system: M14 melanoma
SNB-78 CNS = system: SNB-78 CNS
SK-MEL-28 melanoma = system: SK-MEL-28 melanoma
SNB-19 CNS = system: SNB-19 CNS
OVCAR-4 ovarian = system: OVCAR-4 ovarian
LXFL 529 NSCLC = system: LXFL 529 NSCLC
HT29 colon = system: HT29 colon
SK-MEL-2 melanoma = system: SK-MEL-2 melanoma
SK-MEL-5 melanoma = system: SK-MEL-5 melanoma
COLO 205 colon = system: COLO 205 colon
HCC-2998 colon = system: HCC-2998 colon
HOP-18 NSCLC = system: HOP-18 NSCLC
UACC-62 melanoma = system: UACC-62 melanoma
A549 NSCLC = system: A549 NSCLC
KM12 colon = system: KM12 colon
OVCAR-3 ovarian = system: OVCAR-3 ovarian
A498 renal = system: A498 renal
TK-10 renal = system: TK-10 renal
SN12C renal = system: SN12C renal
IGROV1 ovarian = system: IGROV1 ovarian
UO-31 renal = system: UO-31 renal
DMS 273 small cell lung = system: DMS 273 small cell lung
MOLT-4 leukemia = system: MOLT-4 leukemia
EKVX NSCLC = system: EKVX NSCLC
SK-OV-3 ovarian = system: SK-OV-3 ovarian
RPMI-8226 leukemia = system: RPMI-8226 leukemia
K-562 leukemia = system: K-562 leukemia
SNB-75 CNS = system: SNB-75 CNS
786-0 renal = system: 786-0 renal
M19-MEL melanoma = system: M19-MEL melanoma
NCI-H23 lung = system: NCI-H23 lung
KM20L2 colon = system: KM20L2 colon
ACHN renal = system: ACHN renal
NCI-H460 lung = system: NCI-H460 lung
SF-539 CNS = system: SF-539 CNS
OVCAR-8 ovarian = system: OVCAR-8 ovarian
CCRF-CEM leukemia = system: CCRF-CEM leukemia
HCT-15 colon = system: HCT-15 colon
HOP-92 NSCLC = system: HOP-92 NSCLC
HCT-116 colon = system: HCT-116 colon
SW-620 colon = system: SW-620 colon
RXF 393 renal = system: RXF 393 renal
NCI-H226 lung = system: NCI-H226 lung
NCI-H522 lung = system: NCI-H522 lung
SR leukemia = system: SR leukemia
CAKI-1 renal = system: CAKI-1 renal
SF-268 CNS = system: SF-268 CNS
OVCAR-5 ovarian = system: OVCAR-5 ovarian
LOX IMVI melanoma = system: LOX IMVI melanoma
MALME-3M melanoma = system: MALME-3M melanoma
U251 CNS = system: U251 CNS
UACC-257 melanoma = system: UACC-257 melanoma
HOP-62 NSCLC = system: HOP-62 NSCLC

## O=C1/C(=C/c2cc(O)c(O)c(O)c2)Oc2cc(O)cc(OC3OC(CO)C(O)C(O)C3O)c21 (configuration not stated)
DMS 114 small cell lung
  TGI: > 100 µM
SF-295 CNS
  TGI: 34.3 µM
HL-60(TB) leukemia
  TGI: 43.1 µM
DLD-1 colon
  TGI: 42.4 µM
M14 melanoma
  TGI: 50.4 µM
SNB-78 CNS
  TGI: 68.5 µM
SK-MEL-28 melanoma
  TGI: > 100 µM
SNB-19 CNS
  TGI: > 100 µM
OVCAR-4 ovarian
  TGI: 6.49 µM
LXFL 529 NSCLC
  TGI: 28 µM
HT29 colon
  TGI: 59.5 µM
SK-MEL-2 melanoma
  TGI: 47.7 µM
SK-MEL-5 melanoma
  TGI: 31 µM
COLO 205 colon
  TGI: 54.1 µM
HCC-2998 colon
  TGI: > 100 µM
HOP-18 NSCLC
  TGI: > 100 µM
UACC-62 melanoma
  TGI: 38.8 µM
A549 NSCLC
  TGI: > 100 µM
KM12 colon
  TGI: > 100 µM
OVCAR-3 ovarian
  TGI: 31.4 µM
A498 renal
  TGI: > 100 µM
TK-10 renal
  TGI: > 100 µM
SN12C renal
  TGI: 33 µM
IGROV1 ovarian
  TGI: > 100 µM
UO-31 renal
  TGI: > 100 µM
DMS 273 small cell lung
  TGI: 3.67 µM
MOLT-4 leukemia
  TGI: 43.4 µM
EKVX NSCLC
  TGI: > 100 µM
SK-OV-3 ovarian
  TGI: > 100 µM
RPMI-8226 leukemia
  TGI: 67.9 µM
K-562 leukemia
  TGI: 34.9 µM
SNB-75 CNS
  TGI: > 100 µM
786-0 renal
  TGI: > 100 µM
M19-MEL melanoma
  TGI: 37.1 µM
NCI-H23 lung
  TGI: 80.9 µM
KM20L2 colon
  TGI: 74 µM
ACHN renal
  TGI: 25.7 µM
NCI-H460 lung
  TGI: 34 µM
SF-539 CNS
  TGI: > 100 µM
OVCAR-8 ovarian
  TGI: 35.7 µM
CCRF-CEM leukemia
  TGI: 44.5 µM
HCT-15 colon
  TGI: 57.5 µM
HOP-92 NSCLC
  TGI: 38.7 µM
HCT-116 colon
  TGI: 31.1 µM
SW-620 colon
  TGI: 58.3 µM

## CCN(CC)C(=O)c1cccc2c(OC)ccc(OC)c12
RXF 393 renal
  TGI: > 100 µM
DMS 114 small cell lung
  TGI: > 100 µM
SF-295 CNS
  TGI: > 100 µM
NCI-H226 lung
  TGI: > 100 µM
HL-60(TB) leukemia
  TGI: > 100 µM
DLD-1 colon
  TGI: > 100 µM
M14 melanoma
  TGI: > 100 µM
SK-MEL-28 melanoma
  TGI: > 100 µM
SNB-19 CNS
  TGI: > 100 µM
OVCAR-4 ovarian
  TGI: > 100 µM
NCI-H522 lung
  TGI: > 100 µM
LXFL 529 NSCLC
  TGI: > 100 µM
HT29 colon
  TGI: > 100 µM
SR leukemia
  TGI: > 100 µM
SK-MEL-2 melanoma
  TGI: > 100 µM
SK-MEL-5 melanoma
  TGI: > 100 µM
COLO 205 colon
  TGI: > 100 µM
HCC-2998 colon
  TGI: > 100 µM
CAKI-1 renal
  TGI: > 100 µM
SF-268 CNS
  TGI: > 100 µM
HOP-18 NSCLC
  TGI: > 100 µM
UACC-62 melanoma
  TGI: > 100 µM
A549 NSCLC
  TGI: > 100 µM
KM12 colon
  TGI: > 100 µM
OVCAR-3 ovarian
  TGI: > 100 µM
A498 renal
  TGI: > 100 µM
OVCAR-5 ovarian
  TGI: > 100 µM
TK-10 renal
  TGI: > 100 µM
SN12C renal
  TGI: > 100 µM
IGROV1 ovarian
  TGI: > 100 µM
LOX IMVI melanoma
  TGI: > 100 µM
UO-31 renal
  TGI: > 100 µM
DMS 273 small cell lung
  TGI: > 100 µM
MOLT-4 leukemia
  TGI: > 100 µM
MALME-3M melanoma
  TGI: > 100 µM
EKVX NSCLC
  TGI: > 100 µM
SK-OV-3 ovarian
  TGI: > 100 µM
RPMI-8226 leukemia
  TGI: > 100 µM
K-562 leukemia
  TGI: > 100 µM
SNB-75 CNS
  TGI: > 100 µM
786-0 renal
  TGI: > 100 µM
M19-MEL melanoma
  TGI: > 100 µM
NCI-H23 lung
  TGI: > 100 µM
KM20L2 colon
  TGI: > 100 µM
U251 CNS
  TGI: > 100 µM
ACHN renal
  TGI: > 100 µM
NCI-H460 lung
  TGI: > 100 µM
OVCAR-8 ovarian
  TGI: > 100 µM
CCRF-CEM leukemia
  TGI: > 100 µM
HCT-15 colon
  TGI: > 100 µM
HCT-116 colon
  TGI: > 100 µM
UACC-257 melanoma
  TGI: > 100 µM
SW-620 colon
  TGI: > 100 µM
HOP-62 NSCLC
  TGI: > 100 µM

## O=S1(=O)[C@H](c2ccccc2)c2c(-c3ccccc3)sc(-c3ccccc3)c2[C@@H]1c1ccccc1
RXF 393 renal
  TGI: > 100 µM
DMS 114 small cell lung
  TGI: > 100 µM
SF-295 CNS
  TGI: > 100 µM
HL-60(TB) leukemia
  TGI: > 100 µM
DLD-1 colon
  TGI: > 100 µM
M14 melanoma
  TGI: > 100 µM
SK-MEL-28 melanoma
  TGI: > 100 µM
SNB-19 CNS
  TGI: > 100 µM
OVCAR-4 ovarian
  TGI: > 100 µM
NCI-H522 lung
  TGI: > 100 µM
LXFL 529 NSCLC
  TGI: > 100 µM
HT29 colon
  TGI: > 100 µM
SK-MEL-2 melanoma
  TGI: > 100 µM
SK-MEL-5 melanoma
  TGI: > 100 µM
COLO 205 colon
  TGI: > 100 µM
HCC-2998 colon
  TGI: > 100 µM
CAKI-1 renal
  TGI: > 100 µM
SF-268 CNS
  TGI: > 100 µM
HOP-18 NSCLC
  TGI: > 100 µM
UACC-62 melanoma
  TGI: > 100 µM
A549 NSCLC
  TGI: > 100 µM
KM12 colon
  TGI: > 100 µM
OVCAR-3 ovarian
  TGI: > 100 µM
OVCAR-5 ovarian
  TGI: > 100 µM
TK-10 renal
  TGI: > 100 µM
SN12C renal
  TGI: > 100 µM
IGROV1 ovarian
  TGI: > 100 µM
LOX IMVI melanoma
  TGI: > 100 µM
UO-31 renal
  TGI: > 100 µM
DMS 273 small cell lung
  TGI: > 100 µM
MOLT-4 leukemia
  TGI: > 100 µM
MALME-3M melanoma
  TGI: > 100 µM
EKVX NSCLC
  TGI: > 100 µM
SK-OV-3 ovarian
  TGI: > 100 µM
RPMI-8226 leukemia
  TGI: > 100 µM
K-562 leukemia
  TGI: > 100 µM
SNB-75 CNS
  TGI: > 100 µM
786-0 renal
  TGI: > 100 µM
M19-MEL melanoma
  TGI: > 100 µM
NCI-H23 lung
  TGI: > 100 µM
KM20L2 colon
  TGI: > 100 µM
U251 CNS
  TGI: > 100 µM
ACHN renal
  TGI: > 100 µM
NCI-H460 lung
  TGI: > 100 µM
SF-539 CNS
  TGI: > 100 µM
OVCAR-8 ovarian
  TGI: > 100 µM
CCRF-CEM leukemia
  TGI: > 100 µM
HCT-15 colon
  TGI: > 100 µM
HOP-92 NSCLC
  TGI: > 100 µM
UACC-257 melanoma
  TGI: > 100 µM
SW-620 colon
  TGI: > 100 µM
HOP-62 NSCLC
  TGI: > 100 µM

## CN(C)C(=C1C(Br)=C(Br)C(Br)=C1Br)N(C)C
RXF 393 renal
  TGI: > 100 µM
DMS 114 small cell lung
  TGI: > 100 µM
SF-295 CNS
  TGI: > 100 µM
HL-60(TB) leukemia
  TGI: > 100 µM
DLD-1 colon
  TGI: > 100 µM
M14 melanoma
  TGI: > 100 µM
SK-MEL-28 melanoma
  TGI: > 100 µM
OVCAR-4 ovarian
  TGI: > 100 µM
NCI-H522 lung
  TGI: 39.9 µM
LXFL 529 NSCLC
  TGI: > 100 µM
HT29 colon
  TGI: > 100 µM
SK-MEL-2 melanoma
  TGI: > 100 µM
SK-MEL-5 melanoma
  TGI: > 100 µM
COLO 205 colon
  TGI: > 100 µM
HCC-2998 colon
  TGI: > 100 µM
CAKI-1 renal
  TGI: > 100 µM
SF-268 CNS
  TGI: > 100 µM
HOP-18 NSCLC
  TGI: > 100 µM
UACC-62 melanoma
  TGI: > 100 µM
A549 NSCLC
  TGI: > 100 µM
KM12 colon
  TGI: > 100 µM
OVCAR-3 ovarian
  TGI: > 100 µM
OVCAR-5 ovarian
  TGI: > 100 µM
TK-10 renal
  TGI: > 100 µM
SN12C renal
  TGI: > 100 µM
IGROV1 ovarian
  TGI: > 100 µM
LOX IMVI melanoma
  TGI: 55.6 µM
UO-31 renal
  TGI: > 100 µM
DMS 273 small cell lung
  TGI: > 100 µM
MOLT-4 leukemia
  TGI: > 100 µM
MALME-3M melanoma
  TGI: > 100 µM
EKVX NSCLC
  TGI: > 100 µM
SK-OV-3 ovarian
  TGI: > 100 µM
RPMI-8226 leukemia
  TGI: 76.7 µM
K-562 leukemia
  TGI: > 100 µM
SNB-75 CNS
  TGI: > 100 µM
786-0 renal
  TGI: > 100 µM
M19-MEL melanoma
  TGI: > 100 µM
NCI-H23 lung
  TGI: > 100 µM
KM20L2 colon
  TGI: > 100 µM
U251 CNS
  TGI: > 100 µM
ACHN renal
  TGI: > 100 µM
NCI-H460 lung
  TGI: > 100 µM
SF-539 CNS
  TGI: > 100 µM
OVCAR-8 ovarian
  TGI: > 100 µM
CCRF-CEM leukemia
  TGI: 95.3 µM
HCT-15 colon
  TGI: > 100 µM
HOP-92 NSCLC
  TGI: > 100 µM
UACC-257 melanoma
  TGI: > 100 µM
SW-620 colon
  TGI: > 100 µM
HOP-62 NSCLC
  TGI: > 100 µM
